Data reported in patent publication US10041936B2, “Neuronal cells cultured on microparticles and methods of using same” (The Regents of the University of California, priority 2009, dated 2018).

Tested on: Rat hippocampal neurons
Assay: Culture of hippocampal neurons on PLL-coated beads in media with mitotic inhibitor
Type: cell-based
Description: Borosilicate Glass Spheres (MO-SCI Specialty Products, Rolla, Mo.) were sterilized in an ethanol solution overnight, and dried under vacuum. Then the beads were incubated in a borate buffer solution for one hour, before being left in PLL solution overnight. Hippocampi were removed from embryonic day 18 (E18) rats and treated with trypsin for 20 min at 37° C., followed by washing and trituration. Dissociated cells were plated at 75,000 cells/cm^2 on poly-lysine-coated glass beads and cultured in neurobasal medium supplemented with 2 mM Glutamax, 2% FBS, and 2% B-27. Cells were transfected with Lipofectamine 2000 (Invitrogen) or they were infected with lenti virus after 5-15 days after dissociation and analyzed 2-14 days after infection.
Rat hippocampal neurons were selected as model mammalian brain neurons. Following dissection at a late embryonic stage (E18), or early postnatal stage (P4), the neurons were dissociated and cultured on beads coated with poly-L-lysine (PLL) to enhance cell adhesion and to support maturation.(13, 14) The neurons were grown on the beads using standard techniques developed for conventional 2D cultures (Pautot et al., 2008). […] However, a small number of supporting glial cells, which contribute to neuronal development by stimulating neuron growth and maturation, were also present. […]

## Nc1ccn([C@@H]2O[C@H](CO)[C@@H](O)[C@@H]2O)c(=O)n1 [araC]
araC added to the culture media, no conditioned media
  neuron outgrowth and branching: slowed
araC combined with conditioned media from glial feeder cell cultures, more than 3 weeks
  growth of neurons on the beads: robust growth
